Measured values from ChEMBL document CHEMBL1130512, “Structure-based design of non-peptidic pyridone aldehydes as inhibitors of interleukin-1 converting enzyme” (Bioorg Med Chem Lett, 1997).
Residues, ends and D or L forms follow the SMILES beside them. *: point of attachment. Hydrocinnamoyl = O=C(CCc1ccccc1)*; Cbz = O=C(OCc1ccccc1)*

Each molecule was assayed against T1, Caspase-1 (Homo sapiens, UniProt P29466) (assay: Inhibition of IL-1 beta converting enzyme).
T1 sequence (P29466 whole entry): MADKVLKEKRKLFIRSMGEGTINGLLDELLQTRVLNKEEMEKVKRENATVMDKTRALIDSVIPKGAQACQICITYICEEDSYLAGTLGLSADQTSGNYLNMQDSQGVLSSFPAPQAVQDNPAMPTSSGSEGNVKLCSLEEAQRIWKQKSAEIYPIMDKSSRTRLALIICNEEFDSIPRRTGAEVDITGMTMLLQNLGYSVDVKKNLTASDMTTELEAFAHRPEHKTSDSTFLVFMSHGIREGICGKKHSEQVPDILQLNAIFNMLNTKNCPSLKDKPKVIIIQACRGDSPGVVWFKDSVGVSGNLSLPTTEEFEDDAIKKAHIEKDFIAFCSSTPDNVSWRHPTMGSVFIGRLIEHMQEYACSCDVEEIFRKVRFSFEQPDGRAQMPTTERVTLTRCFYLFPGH

Structure (SMILES) | Ki
CC(=O)N[C@@H](Cc1ccc(O)cc1)C(=O)N[C@H](C(=O)N[C@@H](C)C(=O)N[C@@H](CC(=O)O)C(=O)O)C(C)C | 9 nM
CC(C)[C@H](NC(=O)OCc1ccccc1)C(=O)N[C@@H](C)C(=O)N[C@@H](CC(=O)O)C(=O)O (Cbz-Val-Ala-Asp-OH) | 55 nM
CC(C)[C@H](NC(=O)OCc1ccccc1)C(=O)NCC(=O)N[C@@H](CC(=O)O)C(=O)O (Cbz-Val-Gly-Asp-OH) | 1300 nM

The next lines start with the values.

Ki | Structure (SMILES)
54 nM | CC(=O)NC(C(=O)Nc1ccc(Cc2ccccc2)n(CC(=O)N[C@H](C=O)CC(=O)O)c1=O)c1ccc(O)cc1 (stereo partly specified)
900 nM | O=C[C@H](CC(=O)O)NC(=O)Cn1c(-c2ccccc2)ccc(NC(=O)CCc2ccccc2)c1=O
54 nM | CC(C)[C@H](NC(=O)CCc1ccccc1)C(=O)N[C@@H](C)C(=O)N[C@@H](CC(=O)O)C(=O)O (Hydrocinnamoyl-Val-Ala-Asp-OH)
